From patent US11814367B2, “Inhibitors of glycogen synthase 1 (GYS1) and methods of use thereof” (Maze Therapeutics, Inc., priority 2021, dated 2023)

What follows are compounds tested against hGYS1 enzyme (recombinant hGYS1/GN1 protein) (Homo sapiens (Human), UniProt P13807) (assay: GYS1 coupled enzyme assay (PK/LDH)). Conditions: hGYS1/GN1 50 nM, UDP-Glucose 0.8 mM, G6P 1 mM; geometric mean of at least 2 runs.
Type: biochemical
Description: The GYS1 coupled enzyme assay is a kinetic biochemical assay that indirectly quantifies the rate of glycogen synthesis by coupling the conversion of GYS1 substrate UDP-glucose into UDP with downstream enzymatic reactions. UDP is released from UDP-glucose as glucose monomers are linked into the growing glycogen strand by GYS1. The coupled assay then proceeds with pyruvate kinase utilizing UDP and phospho(enol)pyruvate (PEP) to form pyruvate. Lactate dehydrogenase then converts pyruvate and NADH into lactate and NAD+. Oxidation of NADH to NAD+ can be measured continuously with a plate reader by quantifying the decrease in NADH absorbance at 340 nm over time.
Compounds that inhibit the hGYS1 enzyme and, subsequently, the downstream conversion of NADH to NAD+, were tested using assay ready plates (black, clear bottom 384 well plates) in a final DMSO reaction volume of 2.5% DMSO. The Assay Buffer contained 50 mM Tris pH 7.5, 2 mM MgCl2, and 100 mM KCl. Fresh stocks of BSA at a final concentration of 0.02% and TCEP at 1 mM were added before splitting buffer into hGYS1 buffer and substrate buffer. To the hGYS1 buffer, rabbit liver glycogen was added at a final concentration of 0.2% glycogen. Glucose-6-Phosphate was added at 1 mM, recombinant hGYS1/GN1 protein was added at 50 nM to the substrate buffer, phosphoenolpyruvate (PEP) was added at 2 mM, UDP-Glucose was added at 0.8 mM, NADH) was added at 0.6 mM, and Pyruvate Kinase/Lactate Dehydrogenase was added at 20 units/mL. The reaction was initiated by mixing hGYS1 buffer and substrate buffer at a 1:1 ratio. Both buffers were plated using a liquid dispensing device with hGYS1 buffer plated first followed by the substrate buffer. Plates were spun briefly to eliminate air bubbles and are immediately read in continuous mode at an absorbance of 340 nm, for 10 time points in one-minute increments, for a total of 10 minutes. The slope from these 10 time points was normalized to the positive and negative control wells. The duplicate % inhibition values are then averaged and fit to a Hill equation for dose response according to the Levenberg-Marquardt algorithm with the Hill equation maximum set to 100 and the minimum set to 0.
Unless otherwise specified, IC50 values are reported as the geometric mean of at least 2 assay runs on separate days. Each run represents the average of a technical replicate, where each compound was assayed twice in the same plate. […] A superscript “#” symbol in Table 2 indicates results from a single assay run.

Chain of hGYS1 enzyme (recombinant hGYS1/GN1 protein) (P13807 whole entry): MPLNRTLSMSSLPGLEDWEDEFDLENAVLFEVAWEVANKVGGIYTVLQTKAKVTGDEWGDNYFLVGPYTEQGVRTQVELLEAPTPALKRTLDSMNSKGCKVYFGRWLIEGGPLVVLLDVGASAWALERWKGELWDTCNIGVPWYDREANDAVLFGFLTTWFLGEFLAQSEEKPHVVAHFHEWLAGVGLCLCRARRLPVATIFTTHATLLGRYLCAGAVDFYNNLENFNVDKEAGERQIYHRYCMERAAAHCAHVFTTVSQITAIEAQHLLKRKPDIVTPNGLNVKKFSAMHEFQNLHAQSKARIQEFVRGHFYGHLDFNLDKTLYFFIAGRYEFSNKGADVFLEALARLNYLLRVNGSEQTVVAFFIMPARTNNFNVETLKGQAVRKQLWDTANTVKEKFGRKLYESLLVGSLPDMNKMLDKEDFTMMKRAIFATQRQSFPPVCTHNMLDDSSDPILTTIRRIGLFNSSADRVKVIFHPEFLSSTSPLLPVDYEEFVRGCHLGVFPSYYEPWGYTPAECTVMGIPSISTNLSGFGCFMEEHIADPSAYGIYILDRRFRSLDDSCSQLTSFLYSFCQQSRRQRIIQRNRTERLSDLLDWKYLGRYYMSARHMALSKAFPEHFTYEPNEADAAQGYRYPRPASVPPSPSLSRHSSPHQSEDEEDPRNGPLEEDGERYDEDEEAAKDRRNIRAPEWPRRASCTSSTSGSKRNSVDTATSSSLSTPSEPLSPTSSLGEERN
Chain of hGYS1 enzyme (recombinant hGYS1/GN1 protein) (P46976 whole entry partner): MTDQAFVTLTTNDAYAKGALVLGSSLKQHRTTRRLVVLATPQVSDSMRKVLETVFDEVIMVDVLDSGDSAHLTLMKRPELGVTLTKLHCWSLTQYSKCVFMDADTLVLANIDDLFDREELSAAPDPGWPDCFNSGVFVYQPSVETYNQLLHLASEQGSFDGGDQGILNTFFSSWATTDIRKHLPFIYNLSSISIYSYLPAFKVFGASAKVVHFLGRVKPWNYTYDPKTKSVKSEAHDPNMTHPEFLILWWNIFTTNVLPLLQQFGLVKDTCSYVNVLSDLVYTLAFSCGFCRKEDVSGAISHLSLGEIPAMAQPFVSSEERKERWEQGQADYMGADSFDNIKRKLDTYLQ

SMILES | IC50 [nM]
O=C(NC(c1ccc(C2CC2)c(F)c1)c1cccc2[nH]c(=O)[nH]c12)[C@@H]1CCCN1C(=O)Cc1cnn[nH]1 (single isomer, unassigned) [Compound 648] | 616
CC(C)c1ccc(C(NC(=O)[C@@H]2C[C@@H](F)CN2C(=O)Cc2cnn[nH]2)c2cncc(F)c2)cc1F (single isomer, unassigned) [Compound 617, (2S,4R)-4-fluoro-N-[(R) or (S)-[3-fluoro-4-(propan-2-yl)phenyl](5-fluoropyridin-3-yl)methyl]-1-[2-(1H-1,2,3-triazol-5-yl)acetyl]pyrrolidine-2-carboxamide] | 1640
CC(=O)N1CCC[C@H]1C(=O)NC(c1ccc(C(C)C)cn1)c1ccccc1C (single isomer, unassigned) [Compound 641, (2S)-1-acetyl-N-[(S) or (R)-(2-methylphenyl)[5-(propan-2-yl)pyridin-2-yl]methyl]pyrrolidine-2-carboxamide] | 2950
CC(=O)N1C[C@H]2C[C@@]2(C(=O)N2C[C@H](F)C[C@H]2C(=O)N[C@@H](c2ccccc2)c2ccc(C(C)C)cc2)C1 [Compound 148, (2S,4R)-1-[(1S,5S)-3-acetyl-3-azabicyclo[3.1.0]hexane-1-carbonyl]-4-fluoro-N-[(S)-phenyl[4-(propan-2-yl)phenyl]methyl]pyrrolidine-2-carboxamide] | 344
O=C(N[C@@H](c1ccccc1)c1ccc(C2CC2)c(F)n1)[C@@H]1C[C@@H](F)CN1C(=O)Cn1nncc1N1CCC1 [Compound 762, (2S,4R)-1-{2-[5-(azetidin-1-yl)-1H-1,2,3-triazol-1-yl]acetyl}-N-[(S)-(5-cyclopropyl-6-fluoropyridin-2-yl)(phenyl)methyl]-4-fluoropyrrolidine-2-carboxamide] | 27
CC(=O)N1CCN(CC(=O)N2C[C@H](F)C[C@H]2C(=O)N[C@@H](c2ccccc2)c2ccc(C(C)C)cc2)CC1 [Compound 235, (2S,4R)-1-[2-(4-acetylpiperazin-1-yl)acetyl]-4-fluoro-N-[(S)-phenyl[4-(propan-2-yl)phenyl]methyl]pyrrolidine-2-carboxamide] | 342
CC(C)c1c(F)cc(C(NC(=O)[C@@H]2C[C@@H](F)CN2C(=O)Cc2cnn[nH]2)c2ccccc2)cc1F (single isomer, unassigned) [Compound 666, (2S,4R)-N-[(R) or (S)-[3,5-difluoro-4-(propan-2-yl)phenyl](phenyl)methyl]-4-fluoro-1-[2-(1H-1,2,3-triazol-5-yl)acetyl]pyrrolidine-2-carboxamide] | 2270
CC(=O)N1[C@H](C(=O)N[C@@H](c2ccccc2)c2ccc(C3CC3)c(F)c2)C[C@@H]2C[C@@H]21 [Compound 420, (1S,3S,5S)-2-acetyl-N-[(S)-(4-cyclopropyl-3-fluorophenyl)(phenyl)methyl]-2-azabicyclo[3.1.0] hexane-3-carboxamide] | 3560
CC(=O)N1C2CCC1[C@@H](C(=O)N1C[C@H](F)C[C@H]1C(=O)N[C@@H](c1ccccc1)c1ccc(C(C)C)cc1)C2 (stereo partly drawn) [Compound 157, (2S,4R)-1-[(2S)-7-acetyl-7-azabicyclo[2.2.1]heptane-2-carbonyl]-4-fluoro-N-[(S)-phenyl[4-(propan-2-yl)phenyl]methyl]pyrrolidine-2-carboxamide] | 392
CC(Oc1cccnc1)C(=O)N1C[C@H](F)C[C@H]1C(=O)N[C@@H](c1ccccc1)c1ccc(C(C)C)cc1 (stereo partly drawn) [Compound 124, (2S,4R)-4-fluoro-N-[(S)-phenyl[4-(propan-2-yl)phenyl]methyl]-1-[2-(pyridin-3-yloxy)propanoyl]pyrrolidine-2-carboxamide] | 78
O=C(N[C@@H](c1ccccc1)c1ccc(C2CC2)c(F)c1)[C@@H]1C[C@@H](F)CN1C(=O)Cc1nnc(C2CC2)o1 [Compound 429, (2S,4R)-1-[2-(5-cyclopropyl-1,3,4-oxadiazol-2-yl)acetyl]-N-[(S)-(4-cyclopropyl-3-fluorophenyl)(phenyl)methyl]-4-fluoropyrrolidine-2-carboxamide] | 114
CC(C)c1ccc([C@@H](NC(=O)[C@@H]2CCC3(CC3)N2C(=O)Cc2cnn[nH]2)c2ccccc2)cc1F [Compound 341, (5S)-N-[(S)-[3-fluoro-4-(propan-2-yl)phenyl](phenyl)methyl]-4-[2-(1H-1,2,3-triazol-5-yl)acetyl]-4-azaspiro[2.4]heptane-5-carboxamide] | 780
CC(C)c1ccc([C@@H](NC(=O)[C@@H]2C[C@@H](F)CN2C(=O)C(=O)C2CC2)c2ccccc2)cc1 [Compound 113, (2S,4R)-1-(2-cyclopropyl-2-oxoacetyl)-4-fluoro-N-[(S)-phenyl[4-(propan-2-yl)phenyl]methyl]pyrrolidine-2-carboxamide] | 1040
CC(=O)N1CCC[C@H](C(=O)N2C[C@H](F)C[C@H]2C(=O)N[C@@H](c2ccccc2)c2ccc(C(C)C)cc2)C1 [Compound 153, (2S,4R)-1-[(3S)-1-acetylpiperidine-3-carbonyl]-4-fluoro-N-[(S)-phenyl[4-(propan-2-yl)phenyl]methyl]pyrrolidine-2-carboxamide] | 412
CC(=O)N1[C@H](C(=O)N[C@@H](c2ccccc2)c2ccc(C(C)C)cc2)C[C@@H]2C[C@@H]21 [Compound 199, (1S,3S,5S)-2-acetyl-N-[(S)-phenyl[4-(propan-2-yl)phenyl]methyl]-2-azabicyclo[3.1.0]hexane-3-carboxamide] | 1190
CO[C@H](C)[C@@H](C(=O)N1C[C@H](F)C[C@H]1C(=O)N[C@@H](c1ccccc1)c1ccc(C(C)C)cc1)N(C)C(C)=O [Compound 5, (2S,4R)-4-fluoro-1-[(2S,3R)-3-methoxy-2-(N-methylacetamido)butanoyl]-N-[(S)-phenyl[4-(propan-2-yl)phenyl]methyl]pyrrolidine-2-carboxamide] | 353
CC(=O)N1[C@H](C)CC[C@H]1C(=O)N[C@@H](c1ccccc1)c1ccc(C(C)C)cc1 [Compound 215, (2S,5R)-1-acetyl-5-methyl-N-[(S)-phenyl[4-(propan-2-yl)phenyl]methyl]pyrrolidine-2-carboxamide] | 3770
CC(=O)N1C[C@H](F)C[C@H]1C(=O)N[C@@H](c1ccc(C(C)C)cc1)c1ccn[nH]1 [Compound 614, (2S,4R)-1-acetyl-4-fluoro-N-[(S)-[4-(propan-2-yl)phenyl](1H-pyrazol-5-yl)methyl]pyrrolidine-2-carboxamide] | 1150
Cc1cn(CC(=O)N2C[C@H](F)C[C@H]2C(=O)N[C@@H](c2ccccc2)c2ccc(C(C)C)c(F)n2)c(=O)[nH]c1=O (relative stereo) [Compound 778, (2S,4R)-4-fluoro-N-[(R*)-[6-fluoro-5-(propan-2-yl)pyridin-2-yl](phenyl)methyl]-1-[2-(5-methyl-2,4-dioxo-1,2,3,4-tetrahydropyrimidin-1-yl)acetyl]pyrrolidine-2-carboxamide] | 381
Cc1cnn(C(C)C(=O)N2C[C@H](F)C[C@H]2C(=O)N[C@@H](c2ccccc2)c2ccc(C(C)C)cc2)c1 (stereo partly drawn) [Compound 127, (2S,4R)-4-fluoro-1-[2-(4-methyl-1H-pyrazol-1-yl)propanoyl]-N-[(S)-phenyl[4-(propan-2-yl)phenyl]methyl]pyrrolidine-2-carboxamide] | 318
Cc1ncncc1C(=O)N1C[C@H](F)C[C@H]1C(=O)N[C@@H](c1ccccc1)c1ccc(C(C)C)cc1 [Compound 30, (2S,4R)-4-fluoro-1-(4-methylpyrimidine-5-carbonyl)-N-[(S)-phenyl[4-(propan-2-yl)phenyl]methyl]pyrrolidine-2-carboxamide] | 947
CC(=O)N1CC[C@@H](C)[C@H](C(=O)N2C[C@H](F)C[C@H]2C(=O)N[C@@H](c2ccccc2)c2ccc(C(C)C)cc2)C1 [Compound 170, (2S,4R)-1-[(3S,4R)-1-acetyl-4-methylpiperidine-3-carbonyl]-4-fluoro-N-[(S)-phenyl[4-(propan-2-yl)phenyl]methyl]pyrrolidine-2-carboxamide] | 306
CC(C)c1ccc([C@@H](NC(=O)[C@@H]2C[C@@H](F)CN2C(=O)C2CCC3CCC(=O)N3C2)c2ccccc2)cc1 (stereo partly drawn) [Compound 139, (2S,4R)-4-fluoro-1-(3-oxo-octahydroindolizine-6-carbonyl)-N-[(S)-phenyl[4-(propan-2-yl)phenyl]methyl]pyrrolidine-2-carboxamide] | 357
COc1cc(C(=O)N2C[C@H](F)C[C@H]2C(=O)N[C@@H](c2ccccc2)c2ccc(C(C)C)cc2)nn1C [Compound 709, (2S,4R)-4-fluoro-1-(5-methoxy-1-methyl-1H-pyrazole-3-carbonyl)-N-[(S)-phenyl[4-(propan-2-yl)phenyl]methyl]pyrrol-idine-2-carboxamide] | 1140
